Source: patent publication EP3102180B1, “A TOPICAL COMPOSITION” (Unilever N.V., priority 2014, dated 2015)

Assays:
Assay type in all cases: cell-based
[1] = system: bacterial cells; assay: Antibacterial contact-time kill test (pour plate count after neutralisation); settings: 0.2% TCC or 0.2% thymol + 0.5% terpineol
Procedure: Efficacy of two compositions as shown in Table - 4 were measured as follows: The O.D of the bacterial cells were adjusted such that it corresponds to 1X10^8 cells of bacteria. 1ml of the bacterial culture was taken and added to 9 ml of the test solution (containing the antimicrobial active). The mixture was kept for the desired amount of time after which it was neutralized by adding 1 ml of mix to the 9 ml of D/E neutralizer. It was then serially diluted till 10^5. The number of bacteria was then enumerated by using the pour plate method.

[2] = system: IL-8; assay: IL-8 ELISA in PBMCs exposed to P.acne (with or without antimicrobial treatment of the bacteria)
Procedure: Actives/ Compositions as shown in Table-8 were measured for effect on inflammatory marker IL-8 using the following procedure: PBMCs were isolated as discussed before for Example-1. They were then plated in a 96-well plate. In some wells, cells were pre-treated with 0.001% Andrographolide for 24 hours and some wells were not treated with anything. P.acne culture was grown on CY agar medium in aneorobic chamber and then culture was set to the .005 O.D. Bacterial culture was treated with antimicrobial active combination of thymol (0.05%) and terpineol (0.05%) for 30 seconds. After the contact time is over, sample was neutralized in D/E neutralizer. The bacterial pellet was collected by centrifugation. The pellet was re-suspended in cell culture medium and bacterial culture was added to the cells (PBMC's) treated with andrographolide and also bacterial culture was added to the wells where there was no treatment with andrographolide. Live P.acne (not treated with the antimicrobial actives) was added to the wells where there was no treatment with andrographolide and also added to the wells treated with andrographolide. The treated cells were incubated in 37° C incubator for 24 hours. After 24 hours the supernatant was removed and ELISA was done for IL-8 marker.
The same procedure was followed as explained in the previous section for this experiment. The antimicrobials which were used for this experiment were thymol, terpineol, Triclosan (TCN) and Trichlorocarban (TCC). The used concentrations of these antimicrobials and the concentration of the IL-8 marker after the treatment are summarized in the following Table 9. Table - 9

[3] = system: IL-17; assay: IL-17 ELISA in PBMCs pretreated with active, induced with PMA/ionomycin; settings: PBMCs pretreated with 0.001% active for 24 hours, induction 24 hours with 25 ng PMA/ 1 µg lonomycin; control 732; lower = more anti-inflammatory
Procedure: (§1) The procedure used to measure the anti-inflammatory potential of the various samples was as follows: Blood was diluted with equal volume of HBSS or PBS(1:1). The PBMCs were isolated into fresh tube. These PBMC's were then plated in 96 well plate (10^6 cell/well). They were then pretreated with the active (for 24 hours). Induction was then carried out with antigen/mitogen for 24 hours. The cell-supernatant was then taken and frozen. The cytokine levels in these supernatants were detected by ELISA.

[4] = system: TNF-alpha; assay: TNF-alpha ELISA in PBMCs pretreated with active, induced with PMA/ionomycin; settings: 0.001% active, 25 ng PMA/ 1 µg lonomycin, control 5384, lower = more anti-inflammatory
Procedure: as §1
The experiments were conducted using a similar procedure as earlier except that TNF-alpha ELISA was measured as a marker. Table -2

[5] = system: IL-17; assay: Co-treatment with different actives, cytokine ELISA in PBMCs; settings: co-treatment with 0.001% active, 25 ng PMA/ 1 µg lonomycin; control 2244
[6] = system: TNF-alpha; assay: TNF-alpha ELISA in primary keratinocytes, LPS-induced inflammation; settings: primary keratinocytes pretreated 24 hours with 0.001% active, 25 µg LPS; control 283
Procedure: (§2) The procedure used to measure the anti-inflammatory potential of the various samples was as follows: The primary keratinocytes were seeded in a 24 well plate (80000 cell/well). On attaining full confluency, the cells were pretreated with the active for 24 hours. Inflammation was induced either through using LPS or through use of live and heat treated P. acnes for 24 hours. The cell-supernatant was then taken and frozen. The cytokine levels in these supernatants were detected by ELISA.

[7] = system: IL-8; assay: IL-8 ELISA in keratinocytes induced with LPS, heat killed or live P. acnes
Procedure: as §2
The experiments as shown in Table - 6 were studies using keratinocyte cell lines and the IL-8 concentration was measured. Table - 6
Examples K, 9 and 10: Experiments similar to J, 7 and 8 except that live p.acne was used

[8] = system: TNF-alpha; assay: TNF-alpha ELISA in PBMCs exposed to P.acne (with or without antimicrobial treatment of the bacteria); settings: Table 10: PBMCs; Andrographolide pre-treatment (0.001% per procedure); P.acne treated with 0.05% Thymol, 0.05% Terpineol or 0.2% Silver Oxide; P.acne alone 635.6
[9] = Table 9: PBMCs, Andrographolide pre-treatment (0.001% per procedure), P.acne treated with 0.05% Thymol, 0.05% Terpineol, 0.2% TCC, 0.2% TCN or 0.2% Silver Oxide, P.acne alone 641.5

With `O=C(Nc1ccc(Cl)cc1)Nc1ccc(Cl)c(Cl)c1` [TCC, Trichlorocarbanilide] as the molecule, how does the “Log CFU/ml” value ([1]; contact time 15 seconds, 1X10^8 cells of bacteria) read?
The value was 7.1 Log CFU/ml.

And the “Log CFU/ml” value ([1]; contact time 30 seconds)?
Its value is 7.1 Log CFU/ml.

And the “Log CFU/ml” value ([1]; contact time 1 minute)?
Its value is 7.1 Log CFU/ml.

What about the “Log CFU/ml” value ([1]; contact time 5 minutes) of the same molecule?
Its value is 7.1 Log CFU/ml.

And the IL-8 concentration [2, 9]?
The IL-8 concentration was 626.48 pg/mL.

With `Oc1cc(Cl)ccc1Oc1ccc(Cl)cc1Cl` [TCN, Triclosan, reference compound] as the molecule, how does the IL-8 concentration [2, 9] read?
Its IL-8 concentration is 613.15 pg/mL.

For `C=C1CC[C@@H]2[C@](C)(CO)[C@H](O)CC[C@@]2(C)[C@@H]1C/C=C1/C(=O)OC[C@H]1O` [Andrographolide, andrographolide], which IL-17 concentration [3] is on record?
The IL-17 concentration was 143 pg/mL.

What about the TNF-alpha concentration [4] of the same molecule?
Its TNF-alpha concentration is 58 pg/mL.

What about the IL-17 concentration [5] of the same molecule?
The IL-17 concentration was 1187 pg/mL.

What about the TNF-alpha concentration [6] of the same molecule?
Its TNF-alpha concentration is 156 pg/mL.

And the IL-8 concentration ([7]; 0.01% active, inducer 50 µg LPS, control 649)?
The IL-8 concentration was 229 pg/mL.

And the IL-8 concentration ([7]; 0.01% active, inducer heat killed P. acnes, control 2238)?
Its IL-8 concentration is 1088 pg/mL.

And the IL-8 concentration ([7]; 0.01% active, inducer live P. acnes, control 558)?
The IL-8 concentration was 337 pg/mL.

And the IL-8 concentration ([7]; 0.1% active, inducer 50 µg LPS, control 649)?
The IL-8 concentration was 78 pg/mL.

What about the IL-8 concentration ([7]; 0.1% active, inducer heat killed P. acnes, control 2238) of the same molecule?
The IL-8 concentration was 230 pg/mL.

And the IL-8 concentration ([7]; 0.1% active, inducer live P. acnes, control 558)?
The IL-8 concentration was 205 pg/mL.

And the IL-8 concentration ([2]; Table 8: PBMCs pre-treated with 0.001% Andrographolide for 24 hours and/or P.acne treated with thymol (0.05%) and terpineol (0.05%) for 30 seconds, P. acnes alone 957)?
Its IL-8 concentration is 400 pg/mL.

And the IL-8 concentration [2, 9]?
The IL-8 concentration was 276.48 pg/mL.

And the TNF-alpha concentration [8]?
The TNF-alpha concentration was 231.15 pg/mL.

For `Cc1ccc(C(C)C)c(O)c1` [Thymol, thymol], which IL-8 concentration [2, 9] is on record?
Its IL-8 concentration is 546.38 pg/mL.

And the TNF-alpha concentration [8]?
The TNF-alpha concentration was 546.94 pg/mL.

Which IL-17 concentration [5] does the source give for `CC1=C(/C=C/C(C)=C/C=C/C(C)=C/C(=O)O)C(C)(C)CCC1` [Retinoic acid] here?
The IL-17 concentration was 2762 pg/mL.

For `[Ag+].[Ag+].[O-2]` [Silver Oxide, silver oxide, reference compound], which IL-8 concentration [2, 9] is on record?
Its IL-8 concentration is 599.8 pg/mL.

What about the TNF-alpha concentration [8] of the same molecule?
Its TNF-alpha concentration is 494.3 pg/mL.

How did the IL-17 concentration [5] turn out when `CC1=C(/C=C/C(C)=C/C=C/C(C)=C/CO)C(C)(C)CCC1` [Retinol] was run?
Its IL-17 concentration is 2006 pg/mL.

`CCC(C)(C)C(=O)O[C@H]1C[C@@H](C)C=C2C=C[C@H](C)[C@H](CC[C@@H]3C[C@@H](O)CC(=O)O3)[C@H]21` [Simvastatin, reference compound] was tested. Which IL-17 concentration [3] did it give?
The IL-17 concentration was 493 pg/mL.
